The values below are quoted from earlier work in patent publication US11026907B2, “Azelaic acid gel, preparation method and application thereof” (CHENGDU JOY YOUNG BIOTECHNOLOGY CO., LTD., priority 2018, dated 2021).

Where two headings read alike, the source gives them in different places.

On to `O=C(O)CCCCCCCC(=O)O` [Azelaic acid], for which the Solubility entry (in cold water, ether and benzene) was “slightly soluble”; the Solubility entry (in hot water, alcohol and some polyols) is “soluble”.
